Results on 7 compounds are retold here after PMC6108835, “Target-Based Discovery of an Inhibitor of the Regulatory Phosphatase PPP1R15B” (Cell, 2018).

Data set [1] has as its target T1, R15B (Homo sapiens, UniProt Q5SWA1).
T1 construct: endogenous in cells; host or cells: HeLa
T1 sequence (Q5SWA1 1-713): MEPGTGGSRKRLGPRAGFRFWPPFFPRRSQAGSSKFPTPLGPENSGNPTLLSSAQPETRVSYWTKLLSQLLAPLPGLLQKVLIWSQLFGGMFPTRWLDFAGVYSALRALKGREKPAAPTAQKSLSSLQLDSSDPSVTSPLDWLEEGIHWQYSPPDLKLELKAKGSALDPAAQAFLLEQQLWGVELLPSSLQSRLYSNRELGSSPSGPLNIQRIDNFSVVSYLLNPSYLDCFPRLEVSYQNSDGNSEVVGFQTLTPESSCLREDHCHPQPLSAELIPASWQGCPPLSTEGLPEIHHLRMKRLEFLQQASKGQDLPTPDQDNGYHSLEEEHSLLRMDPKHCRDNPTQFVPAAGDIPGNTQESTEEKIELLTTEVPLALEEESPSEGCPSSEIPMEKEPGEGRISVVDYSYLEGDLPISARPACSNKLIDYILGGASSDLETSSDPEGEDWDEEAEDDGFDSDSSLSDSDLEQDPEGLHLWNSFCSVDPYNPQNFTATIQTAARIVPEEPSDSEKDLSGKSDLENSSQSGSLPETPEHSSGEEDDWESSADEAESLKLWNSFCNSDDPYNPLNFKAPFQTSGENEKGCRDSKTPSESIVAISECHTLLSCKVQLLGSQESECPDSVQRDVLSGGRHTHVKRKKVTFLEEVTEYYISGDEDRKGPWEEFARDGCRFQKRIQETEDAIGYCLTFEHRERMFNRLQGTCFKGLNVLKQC
Nature of the data set: R15B levels on immunoblots of HeLa cell lysates. It counts as cell-based. The conditions noted are these: HeLa cells, Raphin1 10 μM; MG-132 10 μM; NSM-873 or CB-5083 1 μM. The procedure:
HeLa or MEF cells (90,000 cells/mL) were plated in 12-well plates (1 mL/well). The following day cells were treated as indicated; the medium was removed, fresh medium containing compound added and incubated at 37°C for the times indicated. The time course was performed in reverse order to facilitate collecting all samples at the same time. At the end of treatment cells were washed two times with ice-cold PBS and lysed in 150 μL Laemmli Buffer. […] Proteins were transferred to the nitrocellulose membrane using the iBlot 2 system (ThermoFisher Scientific). Membrane was blocked in 5% skimmed milk for 30 min and then probed with primary antibodies followed by incubation with the appropriate horseradish peroxidase-conjugated secondary antibodies (Promega). Proteins were visualized using ECL Prime (GE Healthcare) and imaged in the Chemi-Smart 5000 (Vilber-Lourmat, France) or ChemiDoc Touch (BioRad). Bands were quantified using ImageJ (NIH, USA).
(A western blot detects proteins with antibodies after separation by electrophoresis.)

The subject of data set [2] is liver. Nature of the data set: Oil Red O staining of liver (steatosis). It counts as in vivo, mouse. The settings on record: wild-type mice, single dose 40 mg/kg; Raphin1 also 2 mg/kg for 10 weeks. The method, then:
Treatment- and test-naive C57BL/6J males and females were used. Mice received a single dose of Raphin1 or cycloheximide (CHX, Sigma-Aldrich) at 40 mg/kg at 3 months of age or were treated chronically with Raphin1 at 2 mg/kg from 4 weeks of age for 10 weeks before the analysis. Mice were culled by cervical dislocation, liver was extracted, fresh-frozen in the O.C.T. compound (VWR International) and kept at −80°C until use. Oil Red O staining was performed on 10 μm thick frozen cryosections (Leica CM1850). Sections were washed in 60% propanol and stained for 20 min at room temperature with filtered 0.33% Oil Red O solution (VWR International). After rinsing with distilled water sections were counterstained with hematoxylin (VWR, diluted 1:15) for 1 min. Images were acquired with a 40X objective using SCN400F scanner (Leica).

For data set [3], the system named is eIF2α phosphorylation (HeLa cells). Nature of the data set: Protein analyses on immunoblots, HeLa cells. It counts as cell-based, human. The conditions noted are these: unstressed, 10 μM, 0-10 h. The method, then:
HeLa or MEF cells (90,000 cells/mL) were plated in 12-well plates (1 mL/well). The following day cells were treated as indicated; the medium was removed, fresh medium containing compound added and incubated at 37°C for the times indicated. The time course was performed in reverse order to facilitate collecting all samples at the same time. At the end of treatment cells were washed two times with ice-cold PBS and lysed in 150 μL Laemmli Buffer. Lysates were transferred to 1.5 mL eppendorf tubes, boiled at 95°C for 5 min, sonicated and resolved on Bolt SDS-PAGE 4%–12% Bis-Tris gels (ThermoFisher Scientific). Proteins were transferred to the nitrocellulose membrane using the iBlot 2 system (ThermoFisher Scientific). Membrane was blocked in 5% skimmed milk for 30 min and then probed with primary antibodies followed by incubation with the appropriate horseradish peroxidase-conjugated secondary antibodies (Promega). Proteins were visualized using ECL Prime (GE Healthcare) and imaged in the Chemi-Smart 5000 (Vilber-Lourmat, France) or ChemiDoc Touch (BioRad). Bands were quantified using ImageJ (NIH, USA). The following primary antibodies were used: e-IF2α-P (ThermoFisher Scientific (#44-728G), 1:1,000), e-IF2α (Abcam (#ab5369), 1:1,000), tubulin (Sigma-Aldrich (#T5168), 1:4,000), BiP (BD Biosciences PharMingen (#610978), 1:1,000), ATF4 (Santa Cruz Biotechnology (#sc-200), 1:500), Ppp1r15a (Proteintech (#10449-1-AP), 1:1,000), Ppp1r15b (Proteintech (#14634-1-AP), 1:1,000) and CHOP (ABR Affinity BioReagents (#MA1-250), 1:1,000).

Data set [4] deals with T2, R15A-PP1c holophosphatase (R15A^325-636-PP1c) (Homo sapiens, UniProt O75807).
T2 construct: cDNAs encoding amino acids 325-636 of R15A and 340-698 of R15B were cloned into pMAL-c5x; made in house; host or cells: R15A: E. coli BL21-Gold (DE3) pLysS; bio-PP1c: Sf9 insect cells (baculovirus)
Nature of the data set: Holophosphatase SPR, compounds binding to reconstituted R15A-PP1c. The conditions noted are these: for Binding to R15A-PP1c (in words): SPR, up to 25 μM. The procedure:
(§1) Small molecules were stored as 50 mM stock solutions in 100% DMSO. […] If necessary the concentration range was adjusted to accurately determine the KD depending on the initial results. […] This was followed by 1 min stabilization period, to wash off any unspecific binding. […] After each dilution series, the surface was regenerated using 3 M NaCl for 90 s. […] In order to be able to correct for small variations in DMSO concentration between samples, eight solvent samples ranging from 0.06 to 8% DMSO were injected every 50th cycle. The flow cell temperature was 20°C.

For data set [5], the target named is T3, R15B (Homo sapiens, UniProt Q5SWA1).
T3 construct: cDNAs encoding amino acids 325-636 of R15A and 340-698 of R15B were cloned into pMAL-c5x; made in house; host or cells: E. coli BL21-Gold (DE3) pLysS
Nature of the data set: Limited trypsin digestion of R15B. The settings on record: R15 3 μM, compound 100 μM, trypsin 5 nM, 5 min, 22°C. The procedure: (§2) Reactions were initiated by addition of 5 nM of trypsin from bovine pancreas (Sigma-Aldrich), made up in PBS, and allowed to proceed for 5 min at 22°C, with shaking at 350 rpm. […] Proteins were visualized by staining with InstantBlue Protein Stain (Expedeon).

In data set [6] the target is R15A (Homo sapiens, UniProt O75807). Nature of the data set: Limited trypsin digestion of R15A. More on the design: cDNAs encoding amino acids 325-636 of R15A and 340-698 of R15B were cloned into pMAL-c5x; made in house; host or cells: E. coli BL21-Gold (DE3) pLysS. The settings on record: R15 3 μM, compound 100 μM, trypsin 5 nM, 5 min, 22°C. The method, then: as §2
Data set [7] deals with T4, R15B-PP1c holophosphatase (R15B^340-698-PP1c) (Homo sapiens, UniProt Q5SWA1).
T4 construct: cDNAs encoding amino acids 325-636 of R15A and 340-698 of R15B were cloned into pMAL-c5x; made in house; host or cells: R15B: E. coli BL21-Gold (DE3) pLysS; bio-PP1c: Sf9 insect cells (baculovirus)
Nature of the data set: Holophosphatase SPR, compounds binding to reconstituted R15B-PP1c. The settings on record: SPR, up to 25 μM. The procedure: as §1

The target of data set [8] is T5, PP1c (Homo sapiens, UniProt P36873). Nature of the data set: PP1c catalytic activity assay (DiFMUP, EnzChek). The conditions noted are these: his-PP1c 30 nM.
Experimental: Residual activity of PP1c was measured using the EnzChek Phosphatase Assay Kit (ThermoFisher Scientific) according to the supplier’s instructions, with minor modifications.
The subject of data set [9] is HeLa cells. Description: Assessment of translation rates (35S-methionine), HeLa cells. It counts as cell-based, human. The conditions noted are these: 10 μM; for Label (%), newly synthesized proteins (35S-methionine): HeLa, 0 h = 100. The method, then: HeLa or MEF cells (90,000 cells/mL) were plated in 12-well plates (1 mL/well). The following day cells were treated as indicated; the medium was removed, fresh medium containing compound added and incubated at 37°C for the times indicated. The time course was performed in reverse order to facilitate labeling all samples at the same time. After the treatment the cells were labeled with 100 μCi/mL ^35S-methionine (Hartmann Analytic) for 10 min at 37°C (300 μL fresh medium containing 3 μL ^35S-methionine was added to each well). Note that cells were not starved in methionine-free media before labeling with ^35S-methionine for monitoring protein synthesis. The labeled cells were then washed twice with ice-cold PBS and lysed in 120 μL Laemmli Buffer. Lysates were transferred to 1.5 mL eppendorf tubes, boiled at 95°C for 5 min, sonicated and resolved on Bolt SDS-PAGE 4%–12% Bis-Tris gels (ThermoFisher Scientific). Gels were then stained with InstantBlue (Expedeon) and after the gels had been imaged they were transferred to a 20% ethanol, 7% acetic acid, 4% glycerol solution for 10 min. This was to prevent the gels from cracking while drying. The gels were transferred to filter paper and dried using a gel dryer. The gels were then exposed to a Storage Phosphor Screen (GE Healthcare) and analyzed by phosphorimaging using a Typhoon Imager Scanner (GE Healthcare).

In data set [10] the target is T5, PP1c. Nature of the data set: SPR, compounds binding to PP1c alone immobilized on streptavidin chip. More on the design: cDNA encoding for human PP1cγ (aa 1-322) was cloned into two baculovirus transfer vectors; made in house; host or cells: Sf9 insect cells (baculovirus). The settings on record: PP1c immobilized on SA chip. The procedure:
as §1
Background: Surface plasmon resonance follows binding to a sensor surface in real time, without labels.

Usually Kd stands for the constant that tells how readily two partners part at equilibrium.

The structures appear in SMILES notation. Where “and” joins values, the source holds several entries; their conditions need not be identical. Identical values can stand only once. Peptide text beside a SMILES is read from it. * marks the point of attachment. Cbz = O=C(OCc1ccccc1)*

T2 sequence (O75807 325-636, stated change not applied): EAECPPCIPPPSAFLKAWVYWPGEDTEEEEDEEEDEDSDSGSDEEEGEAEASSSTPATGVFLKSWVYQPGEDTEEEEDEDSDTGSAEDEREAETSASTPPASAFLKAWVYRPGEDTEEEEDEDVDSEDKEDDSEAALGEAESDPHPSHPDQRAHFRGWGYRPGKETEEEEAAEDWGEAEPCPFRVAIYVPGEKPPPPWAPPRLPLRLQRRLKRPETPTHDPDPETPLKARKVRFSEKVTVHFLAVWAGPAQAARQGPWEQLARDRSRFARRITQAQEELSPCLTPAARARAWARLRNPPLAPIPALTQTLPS
T2 sequence (P36873 1-322 partner): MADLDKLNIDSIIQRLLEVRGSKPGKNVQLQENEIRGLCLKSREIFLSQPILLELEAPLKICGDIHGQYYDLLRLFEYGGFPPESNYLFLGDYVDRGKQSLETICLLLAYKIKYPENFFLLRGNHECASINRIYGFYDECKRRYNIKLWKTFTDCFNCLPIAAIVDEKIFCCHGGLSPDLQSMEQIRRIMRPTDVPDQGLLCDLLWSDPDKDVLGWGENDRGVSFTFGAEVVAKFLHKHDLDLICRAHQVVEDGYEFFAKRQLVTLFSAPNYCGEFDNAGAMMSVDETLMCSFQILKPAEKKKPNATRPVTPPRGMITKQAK
T5 sequence (P36873 1-322): as the sequence (P36873 1-322 partner) above
T4 sequence (P36873 1-322 partner limits assumed, one chain of several): as the sequence (P36873 1-322 partner) above
R15A, sequence (O75807 325-636, stated change not applied): as the sequence (O75807 325-636, stated change not applied) above

`Cc1cc2c(C(N)=O)cccc2n1-c1nc2c(c(NCc3ccccc3)n1)COCC2` [CB-5083]: in [1], the “Effect of co-treatment on the Raphin1-induced decrease in R15B” value is reported as “essentially abrogated”.

As to `C[C@@H]1C[C@@H]([C@H](O)CC2CC(=O)NC(=O)C2)C(=O)[C@@H](C)C1` [cycloheximide, Cycloheximide], in data set [2], the “Liver steatosis (Oil Red O)” value is reported as “caused liver steatosis”.

Regarding `N=C(N)N/N=C/c1c(Cl)cccc1Cl` [GBZ, Guanabenz], in [3], the eIF2α phosphorylation result was “no measurable effects”. In addition, the “Binding to R15A-PP1c (in words)” value in data set [4] is “strongly bound”. Moreover, the Kd in data set [4] (holophosphatase reconstituted on SA chip, 20°C, mean ± SD, read-out: KD, steady-state affinity for R15A-PP1c) is 0.122 µM and < 10 µM. Also, the “Protease sensitivity of R15B (limited proteolysis, conformational change)” value in data set [5] is reported as “neither GBZ nor Sephin1 affected”. Also, the “Protease sensitivity of R15A (limited proteolysis, conformational change)” value in [6] is listed as “increased resistance to limited-proteolysis”. Also, the “Binding to R15B-PP1c (in words)” value in data set [7] is reported as “did not bind or only weakly bound”. Further, in data set [8], the “Inhibition of PP1c (dephosphorylation of difluoro-4-methylumbelliferyl phosphate)” value is listed as “did not inhibit”. Besides, in data set [9] (HeLa cells, unstressed), the “Protein synthesis (in words)” value is on record as “no measurable effects”. Moreover, the “Label (%), newly synthesized proteins (35S-methionine)” value in [9] (1 h) came to 94%; in [9] (2 h), 92%; in data set [9] (5 h), 103%; in data set [9] (7.5 h), 96%; in [9] (10 h), 97%. Also, in [10], the “Binding to PP1c alone (in words)” value is “did not measurably bind”.

Regarding `COC[C@@H]([C@H](O)[C@H](O)C(=O)NCC[C@H](C)c1nc(/C=C/C[C@@H]2O[C@]3(C[C@@H](O)[C@@H]2C)O[C@H]([C@H](C[C@H](O)[C@H](C)[C@H](O)[C@H](C)/C=C(C)/C(C)=C/C=C/C(C)=C\C#N)OC)[C@H](OP(=O)(O)O)C3(C)C)co1)N(C)C` [Calyculin A], in data set [8], the “Inhibition of PP1c (dephosphorylation of difluoro-4-methylumbelliferyl phosphate)” value was “inhibited”.

Consider `CC(C)C[C@@H](C=O)NC(=O)[C@H](CC(C)C)NC(=O)[C@H](CC(C)C)NC(=O)OCc1ccccc1` [MG-132] (Cbz-Leu-Leu-Leu-aldehyde), for which, in data set [1], the “Effect of co-treatment on the Raphin1-induced decrease in R15B” value was “prevented”.

For `Cc1cc(OCc2nnc(SC3CCCC3)n2-c2cccnc2)ccc1-c1ccc(S(C)(=O)=O)cc1` [NSM-873], the “Effect of co-treatment on the Raphin1-induced decrease in R15B” value in [1] is given as “essentially abrogated”.

Consider `N=C(N)N/N=C/c1ncccc1Cl` [compound C3], for which the “Binding to R15A-PP1c (in words)” value in data set [4] is “no detectable binding”. For the same compound, the “Binding to R15B-PP1c (in words)” value in data set [7] was “no detectable binding”. Besides, the “Binding to PP1c alone (in words)” value in data set [10] was “no detectable binding”.
